{"source": "ChEMBL document CHEMBL3351759", "about": "“Synthesis and antitumor activity of novel 3-oxo-23-hydroxybetulinic acid derivatives” (Eur J Med Chem, 2014)", "key": {"[1]": {"assay": "Antiproliferative activity against human HL60 cells after 72 hrs MTT assay", "format": "functional, cell-based", "conditions": "HL-60, 72 h"}, "[2]": {"assay": "Antiproliferative activity against human Bel7402 cells after 72 hrs MTT assay", "format": "functional, cell-based", "conditions": "Bel-7402, 72 h"}, "[3]": {"assay": "Antiproliferative activity against human SF763 cells after 72 hrs MTT assay", "format": "functional, cell-based", "conditions": "SF763, 72 h"}, "HeLa": {"test_system": "HeLa", "assay": "Antiproliferative activity against human HeLa cells after 72 hrs MTT assay", "format": "functional, cell-based"}, "B16 [4]": {"test_system": "B16", "assay": "Antiproliferative activity against mouse B16 cells after 72 hrs MTT assay", "format": "functional, cell-based", "conditions": "B16, 72 h"}, "H22 [5]": {"test_system": "H22", "assay": "Antitumor activity against […] H22 cells transplanted in ICR mouse assessed as tumor growth inhibition at 30 mg/kg, ip administered 7 days post tumor transplantation", "format": "functional", "conditions": "168 h, route intraperitoneal"}, "B16 [6]": {"test_system": "B16", "assay": "Antitumor activity against mouse B16 cells transplanted in ICR mouse assessed as tumor growth inhibition at 30 mg/kg, ip administered 7 days post tumor transplantation", "format": "functional", "conditions": "168 h, route intraperitoneal"}, "Mus musculus [7]": {"test_system": "Mus musculus", "assay": "Toxicity in […] H22 cells transplanted ICR mouse assessed as mouse survival at 30 mg/kg, ip administered 7 days post tumor transplantation", "format": "organism-based", "parameters": "dose 30 mg/kg, route intraperitoneal", "conditions": "in vivo, 168 h"}, "Mus musculus [8]": {"test_system": "Mus musculus", "assay": "Toxicity in […] H22 cells transplanted ICR mouse assessed as mouse body weight at 30 mg/kg, ip administered 7 days post tumor transplantation (reference value: 18.4 to 18.9g)", "format": "organism-based", "parameters": "dose 30 mg/kg, route intraperitoneal", "conditions": "in vivo, 168 h"}, "Mus musculus [9]": {"test_system": "Mus musculus", "assay": "Toxicity in mouse […] cells transplanted ICR mouse assessed as mouse survival at 30 mg/kg, ip administered 7 days post tumor transplantation", "format": "organism-based", "parameters": "dose 30 mg/kg, route intraperitoneal", "conditions": "in vivo, 168 h"}, "Mus musculus [10]": {"test_system": "Mus musculus", "assay": "Toxicity in mouse […] cells transplanted ICR mouse assessed as mouse body weight at 30 mg/kg, iv administered 7 days post tumor transplantation (reference value: 18.3 to 18.6g)", "format": "organism-based", "parameters": "dose 30 mg/kg, route intravenous", "conditions": "in vivo, 168 h"}, "H22 [11]": {"test_system": "H22", "assay": "Antitumor activity against human H22 cells transplanted in ICR mouse assessed as tumor growth inhibition at 30 mg/kg, iv administered 7 days post tumor transplantation", "conditions": "168 h, read-out: INH"}, "B16 [12]": {"test_system": "B16", "assay": "Antitumor activity against mouse B16 cells transplanted in ICR mouse assessed as tumor growth inhibition at 30 mg/kg, iv administered 7 days post tumor transplantation", "format": "functional", "conditions": "B16, 168 h"}, "Mus musculus [13]": {"test_system": "Mus musculus", "assay": "Toxicity in mouse […] cells transplanted ICR mouse assessed as mouse survival at 30 mg/kg, iv administered 7 days post tumor transplantation", "format": "organism-based", "parameters": "dose 30 mg/kg, route intravenous", "conditions": "in vivo, 168 h"}, "Mus musculus [14]": {"test_system": "Mus musculus", "assay": "Toxicity in mouse B6 cells transplanted ICR mouse assessed as mouse body weight at 30 mg/kg, iv administered 7 days post tumor transplantation (reference value: 18.2 +/- 0.5g)", "format": "organism-based", "parameters": "dose 30 mg/kg, route intravenous", "conditions": "in vivo, 168 h"}}}
{"smiles": "C=C(C)[C@@H]1CC[C@]2(C(=O)O)CC[C@]3(C)[C@H](CC[C@@H]4[C@@]5(C)CC[C@H](O)[C@@](C)(CO)[C@@H]5CC[C@]43C)[C@@H]12", "values": [{"measurement": "IC50", "setting": "[1]", "value": 45.1, "unit": "µM"}, {"measurement": "IC50", "setting": "[2]", "value": 39.7, "unit": "µM"}, {"measurement": "IC50", "setting": "[3]", "value": 43.4, "unit": "µM"}, {"measurement": "IC50", "setting": "HeLa", "value": 52.4, "unit": "µM"}, {"measurement": "IC50", "setting": "B16 [4]", "value": 29.9, "unit": "µM"}, {"measurement": "inhibition in vivo at 30 mg/kg", "setting": "H22 [5]", "value": 27.8, "unit": "%"}, {"measurement": "inhibition in vivo at 30 mg/kg", "setting": "B16 [6]", "value": 32.4, "unit": "%"}, {"measurement": "Activity", "setting": "Mus musculus [7]", "value": "Non-toxic"}, {"measurement": "Activity", "setting": "Mus musculus [8]", "value": 26.1, "unit": "g"}, {"measurement": "Activity", "setting": "Mus musculus [9]", "value": "Non-toxic"}, {"measurement": "Activity", "setting": "Mus musculus [10]", "value": 26.7, "unit": "g"}]}
{"smiles": "O=P1(N(CCCl)CCCl)NCCCO1", "note": "(configuration not stated) [CYCLOPHOSPHAMIDE ANHYDROUS]", "values": [{"measurement": "inhibition in vivo at 30 mg/kg", "setting": "H22 [11]", "value": 53.7, "unit": "%"}]}
{"smiles": "O=c1[nH]cc(F)c(=O)[nH]1", "note": "[FLUOROURACIL]", "values": [{"measurement": "inhibition in vivo at 30 mg/kg", "setting": "B16 [12]", "value": 70.3, "unit": "%"}, {"measurement": "Activity", "setting": "Mus musculus [13]", "value": "Non-toxic"}, {"measurement": "Activity", "setting": "Mus musculus [14]", "value": 26.2, "unit": "g"}]}
{"smiles": "C=C(C)[C@@H]1CC[C@]2(C(=O)NCCN)CC[C@]3(C)[C@H](CC[C@@H]4[C@@]5(C)CCC(=O)[C@@](C)(COC(C)=O)[C@@H]5CC[C@]43C)[C@@H]12", "values": [{"measurement": "IC50", "setting": "[1]", "value": 8.64, "unit": "µM"}, {"measurement": "IC50", "setting": "[2]", "value": 7.22, "unit": "µM"}, {"measurement": "IC50", "setting": "[3]", "value": 6.23, "unit": "µM"}, {"measurement": "IC50", "setting": "HeLa", "value": 10.6, "unit": "µM"}, {"measurement": "IC50", "setting": "B16 [4]", "value": 5.58, "unit": "µM"}, {"measurement": "inhibition in vivo at 30 mg/kg", "setting": "H22 [5]", "value": 51.8, "unit": "%"}, {"measurement": "inhibition in vivo at 30 mg/kg", "setting": "B16 [6]", "value": 62.7, "unit": "%"}, {"measurement": "Activity", "setting": "Mus musculus [7]", "value": "Non-toxic"}, {"measurement": "Activity", "setting": "Mus musculus [8]", "value": 27.2, "unit": "g"}, {"measurement": "Activity", "setting": "Mus musculus [9]", "value": "Non-toxic"}, {"measurement": "Activity", "setting": "Mus musculus [10]", "value": 26.9, "unit": "g"}]}
{"smiles": "C=C(C)[C@@H]1CC[C@]2(C(=O)O)CC[C@]3(C)[C@H](CC[C@@H]4[C@@]5(C)CCC(=O)[C@@](C)(CO)[C@@H]5CC[C@]43C)[C@@H]12", "values": [{"measurement": "IC50", "setting": "[1]", "value": 36.1, "unit": "µM"}, {"measurement": "IC50", "setting": "[2]", "value": 33.8, "unit": "µM"}, {"measurement": "IC50", "setting": "[3]", "value": 29.3, "unit": "µM"}, {"measurement": "IC50", "setting": "HeLa", "value": 39.2, "unit": "µM"}, {"measurement": "IC50", "setting": "B16 [4]", "value": 20.6, "unit": "µM"}, {"measurement": "inhibition in vivo at 30 mg/kg", "setting": "H22 [5]", "value": 39.5, "unit": "%"}, {"measurement": "inhibition in vivo at 30 mg/kg", "setting": "B16 [6]", "value": 48.1, "unit": "%"}, {"measurement": "Activity", "setting": "Mus musculus [7]", "value": "Non-toxic"}, {"measurement": "Activity", "setting": "Mus musculus [8]", "value": 26.8, "unit": "g"}, {"measurement": "Activity", "setting": "Mus musculus [9]", "value": "Non-toxic"}, {"measurement": "Activity", "setting": "Mus musculus [10]", "value": 27.3, "unit": "g"}]}
